Reference: US5696096A, “Pradimicin derivatives” (Bristol-Myers Squibb Company, priority 1990, dated 1997)
Values after ≈ are worked out from the molar mass of the structure shown.

Columns and labels:
Experiment in all cases: In vitro antifungal activity (MIC), serial agar dilution method
Type in all cases: cell-based
Details in all cases: Sabouraud dextrose agar, 40 hours at 28° C.
Candida albicans = test system: Candida albicans
Method: (§1) Antifungal activities of representative compounds of the present invention were evaluated in vitro. The minimum inhibitory concentrations (MICs) against various fungi were determined by serial agar dilution method using Sabouraud dextrose agar. Thus, approximately 0.003 ml of fungal suspension containing 10^6 cells/ml was applied to the surface of agar plates containing the test antibiotics. The MIC values recorded after the cultures had been incubated for 40 hours at 28° C. are set forth below in Table 1.

Aspergillus fumigatus = test system: Aspergillus fumigatus
Method: as §1

[1] = test system: Trichophyton mentagrophytes
Method: as §1

Cryptococcus neoformans = test system: Cryptococcus neoformans
Method: as §1

Compound	MIC (Candida albicans) [µg/mL]	MIC (Aspergillus fumigatus) [µg/mL]	MIC [1] [µg/mL]	MIC (Cryptococcus neoformans) [µg/mL]
CN[C@@H]1[C@H](O[C@H]2OC[C@H](O)[C@@H](O)[C@@H]2O)[C@@H](O)[C@H](O[C@H]2c3cc(C)c(C(=O)N[C@H](C)C(=O)O)c(O)c3-c3c(cc4c(c3O)C(=O)c3cc(OC)cc(O)c3C4=O)[C@@H]2O)O[C@@H]1C [Example 1, 3'-O-(β-L-xylopyranosyl)pradimicin B]	50 (≈ 59.5 µM)	> 100	> 100	1.6 (≈ 1.9 µM)
CN[C@@H]1[C@H](O[C@@H]2OC[C@@H](O)[C@@H](O)[C@H]2O)[C@@H](O)[C@H](O[C@H]2c3cc(C)c(C(=O)N[C@H](C)C(=O)O)c(O)c3-c3c(cc4c(c3O)C(=O)c3cc(OC)cc(O)c3C4=O)[C@@H]2O)O[C@@H]1C [Example 2, 3'-O-(β-D-Ribopyranosyl)-pradimicin B]	> 25	12.5 (≈ 14.9 µM)	25 (≈ 29.7 µM)	1.6 (≈ 1.9 µM)
CN[C@@H]1[C@H](O[C@@H]2OC[C@H](O)[C@H](O)[C@H]2O)[C@@H](O)[C@H](O[C@H]2c3cc(C)c(C(=O)N[C@H](C)C(=O)O)c(O)c3-c3c(cc4c(c3O)C(=O)c3cc(OC)cc(O)c3C4=O)[C@@H]2O)O[C@@H]1C [Example 3, 3'-O-(α-L-Arabinopyranosyl)pradimicin B]	6.3 (≈ 7.49 µM)	6.3 (≈ 7.49 µM)	6.3 (≈ 7.49 µM)	1.6 (≈ 1.9 µM)
CN[C@@H]1[C@H](O[C@@H]2O[C@H](C)[C@@H](O)[C@H](O)[C@H]2O)[C@@H](O)[C@H](O[C@H]2c3cc(C)c(C(=O)N[C@H](C)C(=O)O)c(O)c3-c3c(cc4c(c3O)C(=O)c3cc(OC)cc(O)c3C4=O)[C@@H]2O)O[C@@H]1C [Example 4, 3'-O-(6-Deoxy-β-D-glucopyranosyl)pradimicin B]	25 (≈ 29.2 µM)	3.1 (≈ 3.63 µM)	1.6 (≈ 1.87 µM)	1.6 (≈ 1.87 µM)
CN[C@@H]1[C@H](O)[C@@H](O)[C@H](O[C@H]2c3cc(C)c(C(=O)N[C@H](C)C(=O)O)c(O)c3-c3c(cc4c(c3O)C(=O)c3cc(OC)cc(O)c3C4=O)[C@@H]2O)O[C@@H]1C [Pradimicin B, reference compound]	3.1 (≈ 4.37 µM)	6.3 (≈ 8.89 µM)	6.3 (≈ 8.89 µM)	0.8 (≈ 1.13 µM)

Results, then the molecule that gave them:

MIC (Candida albicans) [µg/mL]	MIC (Aspergillus fumigatus) [µg/mL]	MIC [1] [µg/mL]	MIC (Cryptococcus neoformans) [µg/mL]	Compound
6.3 (≈ 7.37 µM)	3.1 (≈ 3.63 µM)	1.6 (≈ 1.87 µM)	1.6 (≈ 1.87 µM)	CN[C@@H]1[C@H](O[C@@H]2O[C@H](C)[C@H](O)[C@H](O)[C@H]2O)[C@@H](O)[C@H](O[C@H]2c3cc(C)c(C(=O)N[C@H](C)C(=O)O)c(O)c3-c3c(cc4c(c3O)C(=O)c3cc(OC)cc(O)c3C4=O)[C@@H]2O)O[C@@H]1C [Example 5, 3'-O-(β-D-Fucopyranosyl)pradimicin B]
12.5 (≈ 14.4 µM)	3.1 (≈ 3.56 µM)	3.1 (≈ 3.56 µM)	1.6 (≈ 1.84 µM)	CN[C@@H]1[C@H](O[C@@H]2O[C@H](CO)[C@@H](O)[C@H](O)[C@H]2O)[C@@H](O)[C@H](O[C@H]2c3cc(C)c(C(=O)N[C@H](C)C(=O)O)c(O)c3-c3c(cc4c(c3O)C(=O)c3cc(OC)cc(O)c3C4=O)[C@@H]2O)O[C@@H]1C [Example 6, 3'-O-β-D-glucopyranosylpradimicin B]
50 (≈ 59.5 µM)	1.6 (≈ 1.9 µM)	1.6 (≈ 1.9 µM)	0.8 (≈ 0.951 µM)	CN[C@@H]1[C@H](O[C@@H]2OC[C@@H](O)[C@H](O)[C@H]2O)[C@@H](O)[C@H](O[C@H]2c3cc(C)c(C(=O)N[C@H](C)C(=O)O)c(O)c3-c3c(cc4c(c3O)C(=O)c3cc(OC)cc(O)c3C4=O)[C@@H]2O)O[C@@H]1C [Pradimicin A, reference compound]
